Test results from US20210401931A1, “METHODS AND MATERIALS FOR TREATING CANCER” (Mayo Foundation for Medical Education and Research, priority 2018, published 2021).
Ends that are not written are not given here.

Tested on: NF-κB site of the PD-L1 promoter
Experiment: EMSA with biotin-labeled PD-L1-prom oligonucleotide and PC-3 nuclear extracts
Assay type: cell-based, human
Conditions: PC-3 cells expressing peptide
Source text: FIGS. 11A-H. (A) Heatmap showing differentially expressed genes (FDR<0.01) between palbociclib treatment versus DMSO and knockdown RB1 versus control. Gene expression values (FPKM) were Z-score normalized. FPKM, Fragments Per Kilobase of transcript per Million mapped reads. (B) UCSC Genome Browser screenshots of meta-analysis of published RB ChIP high throughput sequencing (ChIP-seq) data showing RB binding to CD274 (PD-L1) gene locus in K562 cells. PD-L1-prom oligonucleotide DNA containing NF-κB binding sequence was shown in the RB binding peak in the PD-L1 gene, the corresponding mutant PD-L1-prom oligonucleotide DNA was shown below. FIG. 11B discloses SEQ ID NOS 279-280, respectively, in order of appearance. (C) ChIP-qPCR analysis of RB binds at the PD-L1 promotor in PC-3 cells. All data were shown as mean values±SD (n=3). *** P<0.001. (D) ChIP-reChIP analysis examining the co-localization of p65 and RB in the PD-L1 promoters. All data were shown as mean values±SD (n=3). ** P<0.01. […]
FIGS. 21A-N. Effect of RB depletion, cell cycle, and RB-N S249/T252 phospho-mimicking peptide on PD-L1 expression in cell lines of various cancer types. […] 48 hours after infection, PD-L1 expression was determined by western blotting (A), RT-qPCR (B), and FACS (C). […] (D) Pd-l1 protein and mRNA levels were determined by western blotting in primary SKO and DKO mouse prostate tumor cell lines. […]

## RL-S249D/T252D: S249/T252 phospho-mimicking R-Linker (RL) peptide: fragment of RB-N containing 21 amino acids surrounding S249/T252, expressed SFB-tagged or by lentivirus (NGDPRDPRRGQNRSARIAKQL; also: expressed SFB-tagged (tag left off))
  p65 binding to the cognate DNA in the PD-L1 promoter: inhibition
